Data from article PMC12598805, “Crystal Structure–Activity Relationship of Some MeO Phenylacrylonitriles: Dual Antimicrobial–Cytotoxic Effects and in Silico Perspectives” (ChemistryOpen, 2025).
≈ marks a conversion by molar mass, not a printed value. Like-named read-outs stand apart in the source and are kept apart here.

Columns and labels:
[1] = tested on: Bacillus cereus (ATCC-10876); test: Broth microdilution MIC; type: cell-based; conditions: B.cereus
Protocol: (§1) Bacillus cereus (ATCC-10876) […]
(§2) ATCC: American Type Culture Collection; NRRL: Northern Regional Research Laboratory The compounds 2(a-c) obtained could only be completely solubilised with dimethyl sulphoxide (DMSO) and the highest possible stock solutions of 50 mg.mL-1 were prepared. […]
(§3) 3.1. Determination of Minimum Inhibition Concentration (MIC)
(§4) The minimum inhibition concentration (MIC) values of the compounds 2(a-c) against the test bacteria used in the study were determined according to the broth microdilution method.[1-2] MHB or SDB was used as test medium and bacterial and yeast suspensions were prepared at 0.5 Mc Farland concentration for each test bacteria. Double layer serial dilutions were prepared in "U" type 96-well microtiter plates. Medium+bacteria suspensions containing only medium in the first row, medium+bacteria in the second row and the final concentrations of the synthesised substances in the other rows between 25 mg.mL-1 and […] were added to the wells with a final volume of 200
(§5) μL. Ampicillin, Kanamycin and Amphotericin B standard antibiotics were used as positive controls.
(§6) Bacteria were incubated at 37±0.1 °C and C. albicans at 30±0.1 °C for 24-48 hours and the lowest concentration without growth was determined as MIC. Tests were performed in two parallel runs and mean values were given as a result. […]

[2] = tested on: Bacillus cereus (ATCC-10876); test: MBC by sub-culture from wells without growth; type: cell-based; conditions: B.cereus
Protocol: as §1, §2, §3, §4, §5
Bacteria were incubated at 37±0.1 °C and C. albicans at 30±0.1 °C for 24-48 hours and the lowest concentration without growth was determined as MIC. Tests were performed in two parallel runs and mean values were given as a result. In order to estimate “the minimum bactericidal/fungicidal concentrations (MBC/MFC) of the synthesised acrylonitrile derivatives “needed to indicate […] killing of the original inoculum,” 10 μl was taken from the wells with no observed growth and further sub-cultured onto their agar media (MHA and SDA for bacterial and fungal strains, respectively).[3] […]

[3] = tested on: Bacillus cereus (ATCC-10876); test: Agar diffusion, zone of inhibition; type: cell-based; conditions: B.cereus, antibiotics at 5 mg mL^−1
Text: (§7) The antibacterial and antifungal activities were reported utilizing the method described by the Clinical & Laboratory Standards Institute.^[ [31], [32] ^] Agar diffusion method was used to determine the antimicrobial activity of the synthesized substances. The media used were mueller hinton agar (MHA) for bacteria and sabouraud‐dextrose agar (SDA) for fungi (Merck), as recommended by the manufacturer.
(§8) The synthesized compounds were initially investigated for their antimicrobial activity to elucidate the potential therapeutic utility against various pathogenic microbes using the agar plate diffusion method. The compounds were tested at a concentration of 50 mg mL^−1, and the antibiotics (ampicillin, kanamycin, and amphotericin B) were used at 5 mg mL^−1. […] K.pneumoniae and B.cereus were resistant to ampicillin, while they were susceptible to kanamycin with inhibition values of 30 and 26 mm, respectively. No antimicrobial activity of the compounds was observed against E.faecalis, S.typhimurium, K.pneumoniae, and for the fungus compared to Amphotericin B (20 mm).
as §1
(§9) ATCC: American Type Culture Collection; NRRL: Northern Regional Research Laboratory The compounds 2(a-c) obtained could only be completely solubilised with dimethyl sulphoxide (DMSO) and the highest possible stock solutions of 50 mg.mL-1 were prepared. To these wells 50 μl of the previously prepared substances were transferred using sterile micropipette tips. For comparison, Ampicillin and kanamycin antibiotics for bacteria and Amphotericin B antibiotics for fungus were used as positive controls and DMSO was used as negative control. The prepared petri plates were kept at +4°C for about 1 hour and then the bacterial cultures were incubated at 37°C for 18-24 hours and mould cultures at 27-30°C for 48-72 hours. The zones formed were measured millimetrically with callipers. The experiments were performed with three repetitions. […]

[4] = tested on: Klebsiella pneumoniae (ATCC-70063); test: Agar diffusion, zone of inhibition; type: cell-based; conditions: K.pneumoniae, antibiotics at 5 mg mL^−1
Text: as §7
as §8, with “mm). […]” for “mm).”
Klebsiella pneumoniae (ATCC-70063)
as §9

[5] = Cytotoxicity on healthy cells, CCK8 cell viability; type: cell-based, mouse; conditions: mouse, L929 mouse fibroblast cells, read-out: Cytotoxic activity IC50
Text: (§10) We investigated the cytotoxic effects of acrylonitrile derivatives 2(a–c) on human lung carcinoma (A549, CCL‐185) cells purchased from American Culture Collection and human breast carcinoma (MCF‐7) cells purchased from Republic of Turkey Ministry of Agriculture and Forestry Şap Institute, (HUKUK, 00092502), In addition, mouse fibroblast cells (L929, CCL‐1) purchased from American Culture Collection were used to observe the effects of the compounds on healthy cells. In 25 T Flask, A549 cells were grown in dulbecco's modified eagle's medium, MCF‐7, and L929 cells were grown in eagle's minimum essential medium (EMEM), 10% fetal bovine serum and 1% Penicillin‐Streptomycin at 37 °C in a 5% CO2 and 100% humidified incubator. Cell proliferation was checked every day. Cells were taken into the experiment when the cell density reached 70% to 80%. (See Supporting Information for experimental preparation of biological studies).
(§11) The compounds 2a, 2b, and 2c were dissolved in 99.8% Dimethyl sulfoxide (DMSO) respectively, as
(§12) 10 mM main stock. To prepare the doses of acrylonitrile compounds used in the experiment to be
(§13) applied to the cells, five different concentrations of 31.25; 62.5; 125; 250 and 500 μM were prepared
(§14) by diluting the main stock solutions (10 mM) with the medium selected according to the cells. 5-
(§15) Fluorouracil (5-FU) was selected as a positive control in the study. After the 5-FU main stock solution
(§16) was dissolved with DMSO to be 10 mM, the concentrations to be used were diluted with the selected
(§17) media and made ready for the experimental plan. The concentrations used for 5-FU were prepared in
(§18) the same doses used for acrylonitrile derivatives. For the negative control group, groups containing
(§19) only media and no substance were used. Prepared acrylonitrile compounds and 5-FU concentrations
(§20) were added to the wells in three replicates for each dose, and their effects on cell viability at 24 and 48
(§21) Trypan blue solution (Gibco, 1525061) was used to distinguish between living and dead cells in the
(§22) study. Trypan blue passes uncontrollably through the membrane of dead cells that have lost their cell
(§23) membrane integrity and stains the cell blue. Living cells, on the other hand, are not stained because
(§24) Live cell counts were performed using trypan blue using a
(§25) cell counter (Logos Luna II).
(§26) In order to detach the cells adhering to the flasks from the bottom, 500 μL of 0.25% Trypsin-EDTA
(§27) (Gibco, 15400054) solution was added and treated for five minutes.
(§28) detach from the bottom under an inverted microscope (Zeiss Primovert, Germany), medium containing
(§29) 10% FBS was added. After centrifugation at 300 g for 5 minutes and discarding the medium, 1 mL of
(§30) medium was added and the cells were seeded into 96-well culture dishes as 1x10^4 cells in 100 μL per
(§31) Cell Counting Kit 8 (CCK8; Medchem, 146436) was used to determine cell viability. After adding 20 μL
(§32) of CCK8 solution to each well in the dark, 96-well culture dishes were wrapped with aluminum foil and
(§33) kept in a CO2 incubator at 37 °C for 2 hr. Then, it was automatically read with a microplate reader
(§34) (Chromate) at 450 and 630 nm wavelengths. The following formula was used to determine cell
(§35) % Viability = (Sample Well−Blank) (Negative Control−Blank)×100 (1)
(§36) The half-maximal inhibitory concentration (IC50) was calculated as 50% cell death causing dose
(§37) compared to the control group. All data are given as the mean percent fraction of control ± SEM.
(§38) Statistical analysis was done by one-way analysis of variance (ANOVA), followed by Tukey’s multiple
(§39) comparison tests. IBM SPSS Statistics 22 was used to utilize statistical analysis. […]

[6] = tested on: mouse fibroblast cells (L929, CCL‐1); test: Cytotoxicity on healthy cells, CCK8 cell viability; type: cell-based
Text: as §10, §11, §12, §13, §14, §15, §16, §17, §18, §19, §20, §21, §22, §23, §24, §25, §26, §27, §28, §29, §30, §31, §32, §33, §34, §35, §36, §37, §38, §39

[7] = tested on: human breast carcinoma (MCF‐7) cells; test: Cytotoxicity, CCK8 cell viability; type: cell-based; conditions: for IC50: Homo sapiens, MCF7, read-out: Cytotoxic activity IC50
Text: as §10, §11, §12, §13, §14, §15, §16, §17, §18, §19, §20, §21, §22, §23, §24, §25, §26, §27, §28, §29, §30, §31, §32, §33, §34, §35, §36, §37, §38, §39

[8] = tested on: human lung carcinoma (A549, CCL‐185) cells; test: Cytotoxicity, CCK8 cell viability; type: cell-based; conditions: for IC50: Homo sapiens, read-out: Cytotoxic activity IC50
Text: as §10, §11, §12, §13, §14, §15, §16, §17, §18, §19, §20, §21, §22, §23, §24, §25, §26, §27, §28, §29, §30, §31, §32, §33, §34, §35, §36, §37, §38, §39

[9] = tested on: Candida albicans (ATCC-10231); test: Agar diffusion, zone of inhibition; type: cell-based; conditions: C.albicans, antibiotics at 5 mg mL^−1
Text: as §7
as §8, with “mm). […]” for “mm).”
as §9

[10] = tested on: Candida albicans (ATCC-10231); test: MBC/MFC by sub-culture from wells without growth; type: cell-based; conditions: ATCC10231, C.albicans
Protocol: as §2, §3, §4, §5, §6

For NC[C@H]1O[C@H](O[C@H]2[C@H](O)[C@@H](O[C@H]3O[C@H](CO)[C@@H](O)[C@H](N)[C@H]3O)[C@H](N)C[C@@H]2N)[C@H](O)[C@@H](O)[C@@H]1O [Kanamycin, reference compound], the MIC [1] was 31.25 µg/mL (≈ 64.5 µM), the MBC [2] was 62.5 µg/mL (≈ 129 µM) and the zone of inhibition [3] was 26 ± 1.41 mm. It also gave a zone of inhibition ([3]; listed as kanamycin) of 26 mm, a zone of inhibition [4] of 30 ± 0 mm and a zone of inhibition ([4]; listed as kanamycin) of 30 mm.
For O=c1[nH]cc(F)c(=O)[nH]1 [5‐FU, 5‐Fluorouracil, reference compound], the IC50 at 24 h ([5]; L929, 24 h) was 109 µM, the IC50 at 48 h ([5]; L929, 48 h) was 33 µM and the “decrease in cell viability” value ([6]; L929, 24 h, 31.25 μM) was 45%. The “decrease in cell viability” value ([6]; L929, 24 h, 62.5 μM) was 45%, the “decrease in cell viability” value ([6]; L929, 24 h, 125 μM) was 51% and the “decrease in cell viability” value ([6]; L929, 24 h, 250 μM) was 62%. For the same compound, the “decrease in cell viability” value ([6]; L929, 24 h, 500 μM) was 93%, the “decrease in cell viability” value ([6]; L929, 48 h, 31.25 μM) was 50% and the “decrease in cell viability” value ([6]; L929, 48 h, 62.5 μM) was 64%. For the same compound, the “decrease in cell viability” value ([6]; L929, 48 h, 125 μM) was 68%, the “decrease in cell viability” value ([6]; L929, 48 h, 250 μM) was 80% and the “decrease in cell viability” value ([6]; L929, 48 h, 500 μM) was 93%. The IC50 ([7]; MCF‐7, 24 h) was 250 µM, the IC50 ([7]; MCF‐7, 48 h) was 102 µM and the “decrease in cell viability” value ([7]; MCF‐7, 24 h, 31.25 μM) was 23%. The “decrease in cell viability” value ([7]; MCF‐7, 24 h, 62.5 μM) was 23%, the “decrease in cell viability” value ([7]; MCF‐7, 24 h, 125 μM) was 34% and the “decrease in cell viability” value ([7]; MCF‐7, 24 h, 250 μM) was 50%. The “decrease in cell viability” value ([7]; MCF‐7, 24 h, 500 μM) was 76%, the “decrease in cell viability” value ([7]; MCF‐7, 48 h, 31.25 μM) was 46% and the “decrease in cell viability” value ([7]; MCF‐7, 48 h, 62.5 μM) was 47%. The “decrease in cell viability” value ([7]; MCF‐7, 48 h, 125 μM) was 52%, the “decrease in cell viability” value ([7]; MCF‐7, 48 h, 250 μM) was 74% and the “decrease in cell viability” value ([7]; MCF‐7, 48 h, 500 μM) was 95%. For the same compound, the “suppressive effect on cell proliferation / viability” value ([8]; A549, 24 h, 31.25 to 500 μM) was “did not show any suppressive effect”, the “decrease in cell viability” value ([8]; A549, 48 h, 250 μM) was 17% and the “decrease in cell viability” value ([8]; A549, 48 h, 500 μM) was 77%. The IC50 ([8]; A549, 24 h) was > 500 µM and the IC50 ([8]; A549, 48 h) was 386 µM.
For C[C@@H]1[C@H](O)[C@@H](C)/C=C/C=C/C=C/C=C/C=C/C=C/C=C/[C@H](O[C@@H]2O[C@H](C)[C@@H](O)[C@H](N)[C@@H]2O)C[C@@H]2O[C@](O)(C[C@@H](O)C[C@@H](O)[C@H](O)CC[C@@H](O)C[C@@H](O)CC(=O)O[C@H]1C)C[C@H](O)[C@H]2C(=O)O [Amphotericin B, reference compound], the zone of inhibition [9] was 20 ± 0.71 mm, the zone of inhibition at 5 mg/mL ([9]; Candida albicans, ATCC10231) was 20 mm and the MBC [10] was 250 µg/mL (≈ 271 µM).
